For one assay, the system named is Venturia inaequalis. The assay can be described thus: Example G: in vivo preventive test on Venturia inaequalis (apple scab). The settings on record: 100 ppm of active ingredient, evaluated 10 days after inoculation. As for the experimental part:
In Vivo Preventive Test on Venturia inaequalis (Apple Scab) Solvent: 24.5 parts by weight of acetone • 24.5 parts by weight of N,N-dimethylacetamide Emulsifier: 1 part by weight of alkylaryl polyglycol ether To produce a suitable preparation of active compound, 1 part by weight of active compound is mixed with the stated amounts of solvent and emulsifier, and the concentrate is diluted with water to the desired concentration. To test for preventive activity, young plants are sprayed with the preparation of active compound at the stated rate of application. After the spray coating has dried on, the plants are inoculated with an aqueous conidia suspension of the causal agent of apple scab (Venturia inaequalis) and then remain for 1 day in an incubation cabinet at approximately 20° C. and a relative atmospheric humidity of 100%. The plants are then placed in a greenhouse at approximately 21° C. and a relative atmospheric humidity of approximately 90%.

The subject of another assay is Alternaria solani. The experiment in a line: Example C: in vivo preventive test on Alternaria solani (tomato). Particulars: 500 ppm of active ingredient, evaluated 7 days after inoculation. In a few lines: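 Young tomato plants sprayed preventively with compound formulated in DMF/emulsifier and diluted with water, then inoculated one day later with Alternaria solani spores. Plants were held one day at about 22° C, 100% humidity, then at about 20° C, 96% humidity.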

For assay [1], the system named is Sphaerotheca fuliginea. The experiment in a line: Example A: in vivo preventive test on Sphaerotheca fuliginea (cucumber). Particulars: 500 ppm of active ingredient, evaluated 7 days after inoculation.
A further assay concerns Alternaria brassicae. The assay can be described thus: Example D: in vivo preventive test on Alternaria brassicae (leaf spot on radish). The settings on record: 500 ppm of active ingredient, grading 6 days after contamination. An outline of the steps: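 Radish plants at cotyledon stage were sprayed with compound; controls got the acetone/tween/DMSO/water mix alone. After 24 h they were inoculated with Alternaria brassicae spores (50 000 spores per mL) and kept at 20 °C, 100% relative humidity. % efficacy versus controls was graded 6 days post-inoculation.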

The subject of assay [2] is Sphaerotheca fuliginea. The experiment in a line: Example B: in vivo preventive test on Sphaerotheca fuliginea (powdery mildew on cucurbits), gherkin plants. Particulars: 500 ppm of active ingredient, grading 12 days after contamination. In a few lines: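 Gherkin plants grown at 24 °C were sprayed with compound at the Z11 cotyledon stage; controls received acetone/tween/DMSO/water without active. 24 h later, cotyledons were inoculated by spraying with Sphaerotheca fuliginea spores (100 000 spores per mL).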

The test system of another assay is Uromyces appendiculatus. The assay can be described thus: Example Q: in vivo preventive test on Uromyces appendiculatus (bean rust). Particulars: Uromyces appendiculatus on bean plants, 500 ppm of active ingredient, grading 11 days after contamination. An outline of the steps:
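Saxa bean plants at 2-leaf stage, grown at 24° C., sprayed preventively with compound; 24 h later inoculated with U. appendiculatus spores (150 000 spores per mL). Percent efficacy graded 11 days after inoculation versus solvent-treated controls.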

A further assay has as its system Septoria tritici. The assay can be described thus: Example I: in vivo preventive test on Septoria tritici (wheat), acetone/tween/DMSO preparation. The settings on record: 500 ppm of active ingredient, grading 24 days after contamination. An outline of the steps: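 Scipion wheat grown at 22° C, sprayed at 1-leaf stage (10 cm); controls received acetone/tween/DMSO/water without active. Inoculated 24 h later with S. tritici spores (500 000/mL), held 72 h at 18° C, 100% RH, then 21 days at 90% RH. % efficacy vs controls scored 24 days post-inoculation.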

Another assay deals with Botrytis cinerea. The assay can be described thus: Example P: in vivo preventive test on Botrytis cinerea (grey mould), gherkin plants. Particulars: 500 ppm of active ingredient, grading 4 to 5 days after contamination. In a few lines:
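Gherkin plants at Z11 cotyledon stage sprayed preventively with active ingredient, then inoculated 24 h later with B. cinerea spores (50 000/mL) in PDB/fructose nutrient solution. Incubation at 17 °C and 90% RH; % efficacy graded 4–5 days post-inoculation against solvent-treated controls.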

As to `Cn1nc(C(F)F)c(C(=O)N(CC2CC3CCC2C3)C2CC2)c1F` (stereo not drawn) [Example 71], the Efficacy with Venturia inaequalis, in the assay with Alternaria solani and with Sphaerotheca fuliginea [1] was 100% in each case.

`Cn1nc(C(F)F)c(C(=O)N(CC2(Cc3ccccc3)CC3CCC2C3)C2CC2)c1F` (stereo not drawn) [Example 69]: the Efficacy was determined as 96% with Alternaria brassicae, 100% in the assay with Sphaerotheca fuliginea [2], 96% in the assay with Uromyces appendiculatus and 97% with Septoria tritici.

On to `Cn1nc(C(F)F)c(C(=O)N(CC2CCC3CCCC3C2)C2CC2)c1F` (stereo not drawn) [Example 62], for which the Efficacy in the assay on Sphaerotheca fuliginea [2], in the assay with Uromyces appendiculatus and in the assay on Septoria tritici was 100% each time.

Take `Cn1nc(C(F)F)c(C(=O)N(C2CC2)C2CC3CCCCC3C2)c1F` (stereo not drawn) [Example 12]: the Efficacy is 100% in the assay on Botrytis cinerea, 98% in the assay with Sphaerotheca fuliginea [2], 97% with Uromyces appendiculatus and 100% in the assay with Septoria tritici.

Turning to `Cn1cc(C(=O)N(C2CC2)C2CCCC3CCCC32)c(C(F)F)n1` (stereo not drawn) [Example 20], the Efficacy in the assay with Botrytis cinerea is reported as 100%; in the assay on Sphaerotheca fuliginea [2], 100%; with Uromyces appendiculatus, 100%; with Septoria tritici, 96%.

On to `Cn1nc(C(F)F)c(C(=O)N(C2CC2)C2CCCC3CCCC32)c1F` (stereo not drawn) [Example 19], for which the Efficacy with Alternaria brassicae was 100%; in the assay on Venturia inaequalis, 100%; in the assay with Botrytis cinerea, 100%; in the assay on Sphaerotheca fuliginea [2], 100%; with Uromyces appendiculatus it was 100%; with Septoria tritici, 96%.

As for `CC(C1CC2CCC1C2)N(C(=O)c1c(C(F)F)nn(C)c1F)C1CC1` (stereo not drawn) [Example 93], the Efficacy with Venturia inaequalis was determined as 100%; in the assay with Alternaria solani, 95%; in the assay on Sphaerotheca fuliginea [1], 100%.

The record behind these values is patent US9725414B2, “Fungicidal N-bicycloalkyl and N-tricycloalkyl pyrazole-4-(thio)carboxamide derivatives” (priority 2011, dated 2017).
